The values that follow come from PubChem BioAssay AID816 (SRMLSC, 2007).

The structures appear in SMILES notation. Calls of active or inactive are those of the source. The rule behind the calls is not given here.

This assay deals with S. cerevisiae GAL1 promoter reporter activation counterscreen. Nature of the assay: yeast Gal1p promoter activation – S. cerevisiae, artefact control for yeast lifespan extension project (AID 816).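 Note: yeast growth read after 24 h of incubation with compounds.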
By EC50 is commonly meant the midpoint of the concentration-response curve. Consider `O=C(/C(=C/c1ccccc1)n1cncn1)c1ccc(Cl)cc1Cl`, for which the EC50 is > 40 µM (inactive).
The result for `CC(=C1C(=O)c2ccccc2C1=O)N1CCN(C/C=C/c2ccccc2)CC1` reads > 40 µM (inactive).
The result for `CCOc1ccc(C(=O)C(CN2CCOCC2)c2ccccc2)cc1` (stereo not drawn) reads > 40 µM (inactive); that for `Cc1cc(C)n2cc(CSc3nnc(N)s3)nc2n1`, > 40 µM (inactive).
The result for `CNC(=S)NC1CC2CCCC(C1)N2Cc1ccco1` (stereo not drawn) reads > 40 µM (inactive); that for `N#CSCC(=O)N1c2ccccc2CCc2ccccc21`, > 40 µM (inactive).
On to `CCOC(=O)CCS(=O)(=O)c1nc(-c2ccccc2)cc(C(F)(F)F)n1`, for which the EC50 is > 40 µM (inactive).
With `O=Cc1ccccc1OS(=O)(=O)c1ccccc1`, the EC50 was > 40 µM (inactive).
The result for `CCCC(=Nc1ccc(N)cc1)C1=C(O)C(C(=O)OC)C(C)(C)CC1=O` (stereo not drawn) reads > 40 µM (inactive); that for `CC1CCCCC1NC(=O)/C(C#N)=C/c1ccccc1F` (stereo not drawn), > 40 µM (inactive).
The result for `CCOC(=O)c1[nH]nc(C(=O)c2ccc(Br)cc2)c1O` reads > 40 µM (inactive); that for `CC(c1ccco1)N(C(=O)c1ccccc1NS(=O)(=O)c1cc([N+](=O)[O-])ccc1Cl)c1ccccn1` (stereo not drawn), > 40 µM (inactive); that for `CCc1c(C)c(C#N)c2nc3ccccc3n2c1Cl`, > 40 µM (inactive).
Take `O=C1CC(c2ccccc2)CC(O)=C1C=NCCN1CCNCC1` (stereo not drawn): the EC50 is > 40 µM (inactive).
As for `CCOC(=O)c1ccccc1N1C(=O)CSC1=S`, the EC50 was > 40 µM (inactive).
The result for `CCCNC(=O)CCC(NS(=O)(=O)c1ccc(C)cc1)C(=O)NCCC` (stereo not drawn) reads > 40 µM (inactive); that for `O=C(Nc1nccs1)c1ccc2c(=O)n3c(nc2c1)CCCCC3`, > 40 µM (inactive).
The result for `Cc1nc2c(=O)n(C)c(=O)n(C)c2nc1Cl` reads > 40 µM (inactive).
The result for `CCOc1ccc(C2=NNC(c3cccs3)=Nc3ccc(OCC)cc32)cc1` reads > 40 µM (inactive); that for `Cn1c(=O)c2c(nc(Br)n2Cc2ccc3ccccc3c2)n(C)c1=O`, > 40 µM (inactive).
Regarding `CCc1ccc(CC2S/C(=C(\C#N)C(C)=O)NC2=O)cc1` (stereo not drawn), the EC50 is > 40 µM (inactive).
The result for `COc1ccc(CNC(=O)c2c(O)c3cccc4c3n(c2=O)CCC4)cc1` reads > 40 µM (inactive); that for `O=C(Nc1scc(-c2cccs2)c1C(=O)O)c1cccs1`, > 40 µM (inactive).
The result for `COc1cc(/C=C/C(=O)c2c(O)cc(C)oc2=O)cc(OC)c1O` reads > 40 µM (inactive); that for `COc1ccc(/C=C(/C(=O)c2ccc(Cl)cc2Cl)n2cncn2)cc1`, > 40 µM (inactive); that for `COC(=O)c1sc2ncn(-n3c(C)ccc3C)c(=O)c2c1C`, > 40 µM (inactive).
The result for `O=C(Nc1nc2ccccc2n1CCN1CCOCC1)c1cn(-c2ccccc2)nc1-c1ccccc1` reads > 40 µM (inactive).
With `CCn1c(/N=C/c2ccccc2NS(=O)(=O)c2ccc(C)cc2)nc2ccccc21`, the EC50 was > 40 µM (inactive).
The result for `CCCC(=Nc1ccccc1)C1=C(O)C(C(=O)OC)C(C)(C)CC1=O` (stereo not drawn) reads > 40 µM (inactive).
`Fc1cccc2sc(Nc3nnc(-c4ccccc4)o3)nc12`: the EC50 was > 40 µM (inactive).
Take `O=C1C=CC2C(c3ccc4c(c3)OCO4)CC1N2Cc1ccccc1` (stereo not drawn): the EC50 is > 40 µM (inactive).
The result for `CC(C)C(C(=O)O)N1C(=O)/C(=C/c2cccn2C)SC1=S` (stereo not drawn) reads > 40 µM (inactive).
The result for `CN1C(=O)/C(=C/c2cccn2-c2ccc3ccccc3c2)C(=O)NC1=S` reads > 40 µM (inactive); that for `CN1CCN(C(=S)Nc2cc([N+](=O)[O-])ccc2Cl)CC1`, > 40 µM (inactive); that for `O=C(N/N=C/c1ccccc1)c1c(O)c2ccccc2[nH]c1=O`, > 40 µM (inactive).
The result for `CCn1c(/C=N/c2nc3ccccc3n2C)nc2ccccc21` reads > 40 µM (inactive); that for `CCOC(=O)c1c(C)oc2c1c(C(c1cccnc1)N1CCOCC1)c(O)c1ccccc12` (stereo not drawn), > 40 µM (inactive).
Regarding `O=C1CC(c2ccccc2)CC(O)=C1C=NCCN1CCN(C(=O)Nc2ccccc2)CC1` (stereo not drawn), the EC50 was > 40 µM (inactive).
For the compound `CN(C)CC(C(=O)c1ccccc1)c1ccccc1` (stereo not drawn), the EC50 is > 40 µM (inactive).
The result for `COc1cccc(CSc2nc3ccccc3cc2C=O)c1` reads > 40 µM (inactive); that for `COc1cc(/C=C/C(=O)C2C(=O)C=C(C)OC2=O)cc(OC)c1O` (stereo not drawn), > 40 µM (inactive); that for `CCCC(=Nc1ccccc1OC)C1=C(O)CC(c2ccccc2)CC1=O` (stereo not drawn), > 40 µM (inactive).
The result for `CCC1C/C(=C\c2cccnc2)C(=O)/C(=C/c2cccnc2)C1` (stereo not drawn) reads > 40 µM (inactive); that for `O=C1c2ccccc2C(=O)N1c1ncc(Cc2ccc(Cl)cc2)s1`, > 40 µM (inactive); that for `CCOC(=O)c1ccc2c(c1)n(CCO)c(C)[n+]2CC`, > 40 µM (inactive).
The result for `O=C(c1cnn2c(C(F)F)cc(C3CC3)nc12)N1CCCC1` reads > 40 µM (inactive); that for `O=C1ON=C(c2ccccc2)/C1=C/c1ccc(-c2ccccc2[N+](=O)[O-])o1`, > 40 µM (inactive); that for `CCNCCNC(=O)c1c(O)c2cccc3c2n(c1=O)CCC3`, > 40 µM (inactive).
Turning to `CCN(CC)Cc1c(O)c(Cl)cc2c(C)c(C)c(=O)oc12`, the EC50 is > 40 µM (inactive).
The result for `O=C(CCl)c1ccc(Cc2ncc(C(F)(F)F)cc2Cl)s1` reads > 40 µM (inactive).
For the compound `CC(C)C(OC(=O)CN1C(=O)COc2ccccc21)C(=O)NC1CCCC1` (stereo not drawn), the EC50 was > 40 µM (inactive).
As to `O=c1cc(-c2ccccc2Cl)oc2ccc([N+](=O)[O-])c(O)c12`, the EC50 is > 40 µM (inactive).
The result for `CCOC(=O)CC1=NN(c2ccccc2)C(=O)/C1=C\c1ccc(OC)cc1OC` reads > 40 µM (inactive); that for `CCCC[n+]1c(-c2ccc(Cl)cc2Cl)csc1Nc1ccccc1`, > 40 µM (inactive).
The result for `Cc1cc(C)c(S(=O)(=O)c2ccccc2)c(OC(=O)c2ccc(Cl)cc2Cl)n1` reads > 40 µM (inactive).
The result for `Cc1c(NC(=O)C(=O)/C=C(\O)c2ccc(Cl)cc2)c(=O)n(-c2ccccc2)n1C` reads > 40 µM (inactive).
Consider `CCOC(=O)C(=Cc1ccc(F)cc1)C(=O)OCC`, for which the EC50 was > 40 µM (inactive).
The result for `CCOC(=O)/C(=C\c1cn(C)c2ccccc12)[N+](=O)[O-]` reads > 40 µM (inactive).
Turning to `CC1=NN(Cc2ccccc2)C(=O)C1C(c1ccccc1)C(C#N)C#N` (stereo not drawn), the EC50 was > 40 µM (inactive).
On to `COC(=O)C(=O)/C=C(\O)c1ccc(C)cc1`, for which the EC50 is > 40 µM (inactive).
The result for `C[C@]12CC[C@@H](O)C[C@@H]1CC[C@@H]1[C@@H]2CC[C@]2(C)[C@@H](O)CC[C@@H]12` reads > 40 µM (inactive); that for `CC1(C)CC(=O)C2=C(C1)OC1=C(C(=O)CC(C)(C)C1)C2c1ccc(O)cc1O`, > 40 µM (inactive).
On to `CCCCCC(=O)N1CCN(CCN=CC2=C(O)CC(c3ccc(OC)c(OC)c3)CC2=O)CC1` (stereo not drawn), for which the EC50 is > 40 µM (inactive).
For `CCCCCSc1nc2c(c(=O)[nH]c(=O)n2C)n1C`, the EC50 was > 40 µM (inactive).
The result for `Cc1[nH]n(-c2ccccc2)c(=O)c1N=Nc1nccs1` reads > 40 µM (inactive); that for `Cc1ccc(N(C(=O)CS(=O)CC(=O)Nc2ccc(F)cc2)C(C(=O)NC2CCCCC2)c2ccco2)cc1` (stereo not drawn), > 40 µM (inactive); that for `COc1ccc(O)c(C(=O)c2cc(C#N)c(=O)n(CC3CCCO3)c2)c1` (stereo not drawn), > 40 µM (inactive).
The result for `O=CN(/C=C1\Sc2ccccc2C1=O)Cc1ccccc1` reads > 40 µM (inactive); that for `O=C(NC(=S)NNC(=O)c1ccc(Cl)cc1Cl)c1cccnc1`, > 40 µM (inactive); that for `Cc1ccc(/C=C/C(=O)C2C(=O)c3ccccc3C2=O)cc1`, > 40 µM (inactive).
The result for `Cc1cccc(NC(=O)c2c(O)c3cccc4c3n(c2=O)CCC4)n1` reads > 40 µM (inactive); that for `CC(=O)Nc1nc(C)c(Oc2ccccc2)c(=O)[nH]1`, > 40 µM (inactive); that for `Cc1ccc2nc(N3C(=O)C(O)=C(C(=O)c4ccco4)C3c3cccs3)sc2c1` (stereo not drawn), > 40 µM (inactive).
For `COc1ccc(OC)c(C2C(C(C)=O)=C(O)C(=O)N2Cc2cccnc2)c1` (stereo not drawn), the EC50 was > 40 µM (inactive).
As for `Cc1ccc(S(=O)(=O)N[C@@H](Cc2ccccc2)C(=O)CCl)cc1`, the EC50 is > 40 µM (inactive).
The result for `CN=C(SCc1cc2c(cc1Cl)OCO2)c1c(O)n(C)c(=O)n(C)c1=O` reads > 40 µM (inactive).
The result for `CN(C)C1(c2nnnn2CCOC(=O)Nc2ccc(Cl)cc2)CCCCC1` reads > 40 µM (inactive); that for `COc1ccc(NC(=O)/C(Cl)=C(/Cl)S(=O)Cc2ccc(C)cc2)cn1` (stereo not drawn), > 40 µM (inactive); that for `COc1ccc(N(C)C(=S)Nc2ccc3nc(C)c(C)nc3c2)cc1`, > 40 µM (inactive).
The result for `COCCN(CCOC)S(=O)(=O)c1ccc(C(=O)Nc2sc3c(c2C(N)=O)CCCCC3)cc1` reads > 40 µM (inactive); that for `CCCc1cc(=O)oc2cc(C)c(CN3CCCC3)c(O)c12`, > 40 µM (inactive); that for `COC(=O)/C(=C/c1cn(C)c2ccccc12)[N+](=O)[O-]`, > 40 µM (inactive).
For the compound `CC(C)c1nnc(NC(=O)c2c(O)c3cccc4c3n(c2=O)CCC4)s1`, the EC50 was > 40 µM (inactive).
Regarding `Cc1ccccc1OC(=O)n1c(=S)oc2cc(Cl)ccc21`, the EC50 was > 40 µM (inactive).
The result for `Cc1cc(C=C2C(=O)N(C)C(=S)N(C)C2=O)c(C)n1-c1cccnc1` reads > 40 µM (inactive); that for `Nc1sc(-c2ccccc2)cc1C(=O)O`, > 40 µM (inactive); that for `CCOC(=O)C1=C(N)OC2=C(C(=O)CCC2)C1c1sccc1C` (stereo not drawn), > 40 µM (inactive).
The result for `CC1(C)CC(=O)C(C(=O)Cc2ccccc2[N+](=O)[O-])C(=O)C1` reads > 40 µM (inactive).
